# Assay results as given in PMC12391581 (Antiviral Research, 2025).
# Several values for one entry are separate records, joined by “and”; a condition that tells them apart may be missing. Identical values can stand only once. Marks after values point to notes of the source that are not given here.
# Tests used:
# A(H3N2) viruses [1] = format: cell-based, influenza A(H3N2) virus
# A(H1N1)pdm09 viruses = format: cell-based, influenza A(H1N1)pdm09 virus
# A(H3N2) viruses [2] = format: cell-based, influenza A(H3N2) virus; remark: listed apart in the source
# [3] = system: neuraminidase (NA) of B/Victoria-lineage viruses; format: biochemical, influenza B/Victoria-lineage virus
# [4] = system: neuraminidase (NA) of A(H1N1)pdm09 viruses; format: biochemical, influenza A(H1N1)pdm09 virus
# [5] = system: neuraminidase (NA) of A(H3N2) viruses; format: biochemical, influenza A(H3N2) virus
smiles,measurement,setting,value
"COC(=O)OCOc1c2n(ccc1=O)N([C@@H]1c3ccccc3SCc3c1ccc(F)c3F)[C@@H]1COCCN1C2=O [Baloxavir, baloxavir marboxil]",IRINA fold-change compared to PA-sequence matched virus,A(H3N2) viruses [1],4.8 fold
same,EC50 fold-change compared to reference median EC50 values,A(H1N1)pdm09 viruses,2.72 fold and 2.72 ^e fold
same,Fold change in EC50,A(H1N1)pdm09 viruses,2.72^d fold
same,baloxavir susceptibility phenotype,A(H1N1)pdm09 viruses,RS (key: RS to baloxavir is provisionally defined as >3-fold change in EC50 of a test virus compared to the subtype/lineage-specific median EC50 values)
same,HINT fold-change compared to PA-sequence matched virus,A(H3N2) viruses [2],4.4 fold
"CCC(CC)[C@H](NC(C)=O)[C@@H]1[C@H](O)[C@@H](C(=O)O)C[C@H]1N=C(N)N [Peramivir, peramivir]",Fold-change in IC50,[3],158 fold
same,IC50 fold-change compared to reference median IC50 values,[3],158 fold
same,NAI inhibition phenotype (NI/RI/HRI),[3],HRI (key: normal inhibition (NI) is a <5-fold increase in the NAI IC50; RI is a 5- to 50-fold increase; HRI is a >50-fold increase)
same,NAI inhibition phenotype (NI/RI/HRI),[4],HRI (key: normal inhibition (NI) is a <10-fold increase in the NAI IC50; RI is a 10- to 100-fold increase; HRI is a >100-fold increase)
"[H]/N=C(\N)N[C@H]1C=C(C(=O)O)O[C@@H]([C@H](OC)[C@H](O)CO)[C@@H]1NC(C)=O [Laninamivir, laninamivir]",Fold-change in IC50,[3],0.91 fold
same,IC50 fold-change compared to reference median IC50 values,[3],0.91 fold
"CC(=O)N[C@H]1[C@H]([C@H](O)[C@H](O)CO)OC(C(=O)O)=C[C@@H]1N=C(N)N [Zanamivir, zanamivir]",IC50 fold-change (borderline RI),[3],5.76- to 6.25 fold
same,Fold-change in IC50,[5],10.16 fold
same,IC50 fold-change compared to reference median IC50 values,[5],10.16 fold
same,NAI inhibition phenotype (NI/RI/HRI),[5],RI (key: normal inhibition (NI) is a <10-fold increase in the NAI IC50; RI is a 10- to 100-fold increase; HRI is a >100-fold increase)
"CCOC(=O)C1=C[C@@H](OC(CC)CC)[C@H](NC(C)=O)[C@@H](N)C1 [Oseltamivir, oseltamivir]",Fold-change in IC50,[5],1.86 fold
same,IC50 fold-change compared to reference median IC50 values,[5],1.86 fold
